For data set [1] the following is noted: judged, times more bitter than denatonium benzoate; cited from earlier work.
For data set [2] the following is noted: in vivo; cited from earlier work.
For another data set, the system named is TAS2R subtypes. Particulars: cited from earlier work.
Data set [3] in a line: acute food intake inhibition study, oral gavage, Sprague Dawley rats. The class given is in vivo. The text has this: In a short-term food intake inhibition study, in Sprague Dawley rats the doses of DB administered were 7.5, 15, 30, and 60 μmol/kg. The corresponding human equivalent doses (HED) are be 1.2, 2.4, 4.9, 9.7 μmol/kg, respectively. In a longer-term food intake inhibition study in C57BL/6NTac mice the dose of DB used was 60 μmol/kg. The corresponding HED was 4.9 μmol/kg. […] Therefore, the disclosed formulation provides a dose of DB from about 500 nmol/kg to about […], which corresponds to from about 10 mg to about 200 mg for a human adult.
This example provides the results of an oral dose rat gavage study, measuring food and water intake following administration of a disclosed formulation by gavage. We conducted an acute food intake inhibition study of DB in Sprague Dawley rats.
For a longer term study, in view of the foregoing acute study findings, the effect of a combination of components was investigated. To ensure the adequate effect of the DB combination, 60 μmol/kg (26.8 mg/kg) once daily for DB in the first two weeks of the study was used, and then switched to twice daily in the last two weeks of the study.

For data set [4] the following is noted: normal C57BL/6 mice, oral DB only at 60 μmol/kg (26.8 mg/kg); cited from earlier work.
The conditions of data set [5]: C57BL/6 DIO mice, 60 μmol/kg DB (26.8 mg/kg) once daily, 28-day period, vs vehicle; cited from earlier work.
For data set [6] the following is noted: healthy volunteers, 1 μmol/kg DB; cited from earlier work.

Where a name gives a salt, the structure may show the parent alone.

Take `CC[N+](CC)(CC(=O)Nc1c(C)cccc1C)Cc1ccccc1` [denatonium saccharide, benzyl-[2-(2,6-dimethylanilino)-2-oxoethyl]-diethylazanium; 1,1-dioxo-1,2-benzothiazol-3-olate]: in data set [1], the “bitterness relative to denatonium benzoate” value is recorded as 5 times.

On to `CN1CCc2cccc3c2[C@H]1Cc1ccc(O)c(O)c1-3` [Apomorphine, (6aR)-5,6,6a,7-Tetrahydro-6-methyl-4H-dibenzo(de,g)chinolin-10,11-diol hydrochlorid], for which the oral availability in data set [2] was around 4%.

Consider `C=C[C@H]1C[N@]2CC[C@H]1C[C@H]2[C@H](O)c1ccnc2ccc(OC)cc12` [Quinine, (R)-[(2S,4S,5R)-5-ethenyl-1-azabicyclo[2.2.2]octan-2-yl]-(6-methoxyquinolin-4-yl)methanol, reference compound], for which the “number of TAS2R subtypes activated” value in the data set with TAS2R subtypes is listed as “nine”.

Consider `O=C(/C=C/c1ccc(O)c(O)c1)O[C@@H]1C[C@]2(O)C[C@@H](OC2=O)[C@@H]1O` [3-CQL, (1R,3R,4R,5R)-1,4-Dihydroxy-7-oxo-6-oxabicyclo[3.2.1]oct-3-yl (2E)-3-(3,4-dihydroxyphenyl)acrylate], for which the “number of TAS2R subtypes activated” value in the data set with TAS2R subtypes is listed as “eight”.

As to `CC[N+](CC)(CC(=O)Nc1c(C)cccc1C)Cc1ccccc1.O=C([O-])c1ccccc1` [DB, benzyl-[2-(2,6-dimethylanilino)-2-oxoethyl]-diethylazanium benzoate], in data set [3] (Sprague Dawley rats, various doses of DB by gavage, within the first 6 h after administration), the food intake result is recorded as “significantly inhibited food intake”. In addition, the half-life (as a rule, the time needed for the level to fall by half in the phase considered) in data set [3] (rat, in vivo, oral, inferred from duration of food intake inhibition in Sprague Dawley rats) was 6 h. Besides, the gastric emptying rate entry in data set [4] is reported as “significantly inhibited gastric emptying rate”. Besides, the body weight entry in data set [5] is recorded as “induced a decrease in body weight”. Further, in data set [6], the nutrient volume tolerance result is reported as “decreased nutrient volume tolerance” and the satiation entry was “increased satiation”. Moreover, in the data set on TAS2R subtypes, the “number of TAS2R subtypes activated” value is reported as “eight”.

Values taken from patent US10835505B2, “Oral pharmaceutical formulation for weight loss, diabetes and related disorders” (priority 2018, dated 2020).
